Activity and inhibition data for two compounds are collected here from ChEMBL document CHEMBL5329217, “Hesperidin Methyl Chalcone reduces extracellular Aβ(25-35) peptide aggregation and fibrillation and also protects Neuro 2a cells from Aβ(25-35) induced neuronal dysfunction” (Bioorg Med Chem, 2023).

Assay [1] has as its target Amyloid-beta precursor protein (Homo sapiens) (UniProt P05067). The experiment in a line: Disaggregation of amyloid beta (25 to 35) (unknown origin) mature fibrils at 50 ug/ml incubated for 1 to 9 days by ThT-based fluorescence microscopic analysis. Particulars: dose 50.0 µg/ml, time 1-9 day.
Assay [2] deals with Acetylcholinesterase (Electrophorus electricus) (UniProt O42275). The experiment in a line: Inhibition of electric eel AchE using acetylthiocholine iodide as substrate at 100 ug/ml by Ellman's method relative to control. As to conditions: dose 100.0 µg/ml.
The nature of assay [3]: Antioxidant activity assessed as free radical scavenging activity at 100 ug/ml by DPPH assay relative to control. The assay is classed as functional. Particulars: dose 100.0 µg/ml. (The DPPH test is a chemical assay of radical scavenging.)

Active and inactive are the calls of the source. No cut-off for these calls is given here.

Amyloid-beta precursor protein (Homo sapiens), sequence (P05067 whole entry): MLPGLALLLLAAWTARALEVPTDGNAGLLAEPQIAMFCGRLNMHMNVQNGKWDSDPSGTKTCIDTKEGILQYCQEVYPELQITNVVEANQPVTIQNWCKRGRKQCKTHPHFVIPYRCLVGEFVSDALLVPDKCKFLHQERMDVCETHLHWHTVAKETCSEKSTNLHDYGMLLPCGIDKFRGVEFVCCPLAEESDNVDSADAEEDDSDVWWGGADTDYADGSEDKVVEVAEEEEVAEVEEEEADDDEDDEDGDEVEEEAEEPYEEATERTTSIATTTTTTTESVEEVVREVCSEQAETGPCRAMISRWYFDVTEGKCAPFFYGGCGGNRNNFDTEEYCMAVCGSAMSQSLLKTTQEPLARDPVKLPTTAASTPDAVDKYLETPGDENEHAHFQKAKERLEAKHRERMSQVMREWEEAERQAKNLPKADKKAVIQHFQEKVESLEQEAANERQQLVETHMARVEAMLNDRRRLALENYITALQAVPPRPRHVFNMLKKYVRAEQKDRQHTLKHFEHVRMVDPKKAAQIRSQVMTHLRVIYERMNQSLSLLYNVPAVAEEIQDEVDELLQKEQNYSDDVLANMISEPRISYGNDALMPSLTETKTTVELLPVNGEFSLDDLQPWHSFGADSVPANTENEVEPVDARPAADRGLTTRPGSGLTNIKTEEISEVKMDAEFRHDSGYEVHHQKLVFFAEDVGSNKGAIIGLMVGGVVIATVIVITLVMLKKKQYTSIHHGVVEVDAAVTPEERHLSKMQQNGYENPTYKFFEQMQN
Acetylcholinesterase (Electrophorus electricus), sequence (O42275 24-633 limits assumed): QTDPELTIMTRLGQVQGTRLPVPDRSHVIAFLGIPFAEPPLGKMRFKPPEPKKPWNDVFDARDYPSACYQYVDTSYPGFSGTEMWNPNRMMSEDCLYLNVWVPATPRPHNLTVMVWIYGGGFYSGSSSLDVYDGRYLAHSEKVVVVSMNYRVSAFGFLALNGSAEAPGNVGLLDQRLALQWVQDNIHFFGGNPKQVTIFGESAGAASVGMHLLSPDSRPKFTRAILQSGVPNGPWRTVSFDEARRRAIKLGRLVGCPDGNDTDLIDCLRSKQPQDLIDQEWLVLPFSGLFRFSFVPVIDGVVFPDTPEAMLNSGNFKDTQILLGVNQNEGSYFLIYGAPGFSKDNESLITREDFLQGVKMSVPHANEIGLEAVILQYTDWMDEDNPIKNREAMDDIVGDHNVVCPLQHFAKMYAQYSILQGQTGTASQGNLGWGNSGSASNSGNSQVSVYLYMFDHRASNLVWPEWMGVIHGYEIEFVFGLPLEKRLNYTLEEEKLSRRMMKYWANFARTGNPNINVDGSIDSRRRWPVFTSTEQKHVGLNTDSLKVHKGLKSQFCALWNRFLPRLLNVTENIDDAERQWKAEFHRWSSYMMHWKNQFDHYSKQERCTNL

As to `COc1ccc2c3c1O[C@H]1C[C@@H](O)C=C[C@@]31CCN(C)C2`, the outcome in assay [1] was Active.
For `COc1ccc([C@@H]2CC(=O)c3c(O)cc(O[C@@H]4O[C@H](CO[C@@H]5O[C@@H](C)[C@H](O)[C@@H](O)[C@H]5O)[C@@H](O)[C@H](O)[C@H]4O)cc3O2)cc1O`, the inhibition – broadly, how much of the control response was suppressed – in assay [2] was determined as 94.4%; in assay [3] it was 56%.
